Data set [1] can be described thus: Cytotoxicity against HEK293 cells assessed as inhibition of cell viability after 48 hrs by MTT assay. The class given is toxicity, cell-based. To be noted: human. (Formazan colour is commonly taken as a measure of viable cells.)
The next data set has as its system Staphylococcus aureus. The data set can be described thus: Antibacterial activity against Staphylococcus aureus after 24 hrs by broth dilution method. It counts as functional.
The next data set concerns Escherichia coli. The data set can be described thus: Antibacterial activity against Escherichia coli after 24 hrs by broth dilution method. The class given is functional.
Data set [2] is described as follows: Cytotoxicity against human HeLa cells assessed as inhibition of cell viability after 48 hrs by MTT assay. It counts as functional, cell-based.
The next data set concerns Aspergillus niger. Kind of data set: Antifungal activity against Aspergillus niger by agar streak dilution method. The class given is functional.
A short description of data set [3]: Antifungal activity against Penicillium notatum by agar streak dilution method. To be noted: Penicillium chrysogenum. The class given is functional.
A short description of data set [4]: Cytotoxicity against human A549 cells assessed as inhibition of cell viability after 48 hrs by MTT assay. It counts as functional, cell-based. Particulars: A549, 48 h.
The next data set has as its system Bacillus subtilis. Kind of data set: Antibacterial activity against Bacillus subtilis after 24 hrs by broth dilution method. The class given is functional.
The test system of a further data set is Klebsiella pneumoniae. Kind of data set: Antibacterial activity against Klebsiella pneumoniae after 24 hrs by broth dilution method. The class given is functional. On the technique in general: In broth dilution the organism is exposed to a series of concentrations in liquid medium.
Data set [5] is described as follows: Cytotoxicity against human MCF7 cells assessed as inhibition of cell viability after 48 hrs by MTT assay. The class given is functional, cell-based. Particulars: MCF7, 48 h.

As a reminder, the IC50 is the point on the concentration scale where inhibition reaches its midpoint. As usually defined, the MIC is the smallest concentration in the dilution series that meets the test's criterion for growth inhibition. A low value points to inhibition by little substance.

In brackets after ≈: the same amount, converted by molar mass.

`CC(C=C(O)c1ccccc1)=N/N=C1/c2ccccc2-n2c1nc1ccccc1c2=O`: the 50% inhibitory concentration (IC50) at 48 h in data set [1] is 68.1 µM. For the same molecule, the MIC against Staphylococcus aureus is over 100 µg/mL; against Escherichia coli, over 100 µg/mL; in the data set on Aspergillus niger it was 25 µg/mL (≈ 61.5 µM); in data set [3] it was 25 µg/mL (≈ 61.5 µM); in the data set on Bacillus subtilis, over 100 µg/mL; in the data set on Klebsiella pneumoniae it was over 100 µg/mL. For the same molecule, the IC50 came to 25.2 µM in data set [2], 17.6 µM in data set [4] and 26.2 µM in data set [5].

(Values after ChEMBL document CHEMBL3862025, “Novel substituted hydrazono indolo[2,1-b]quinazoline-6,12-dione analogues as cytostatic agents: Synthesis, crystal structure, biological evaluation and molecular docking studies” (Bioorg Med Chem Lett, 2016).)
